Experimental findings from patent US5486597A, “Tetrapeptide derivatives and analogues” (James Black Foundation Limited, priority 1990, dated 1996) are described below.

Non-standard residues stand in square brackets, D forms with d. Residues, ends and D or L forms follow the SMILES beside them. *: point of attachment. Trp(1-Me) = Cn1cc(C[C@H](N)C(=O)O)c2ccccc21; Phe(4-Cl) = N[C@@H](Cc1ccc(Cl)cc1)C(=O)O; αMeW = C[C@](N)(Cc1c[nH]c2ccccc12)C(=O)O; 2Nal = N[C@@H](Cc1ccc2ccccc2c1)C(=O)O; Fmoc = O=C(OCC1c2ccccc2-c2ccccc21)*; Adoc = O=C(OC12CC3CC(CC(C3)C1)C2)*; Boc = CC(C)(C)OC(=O)*

One assay has as its target T1, gastrin receptor (Mus musculus, UniProt P56481).
T1 construct: assayed for gastrin activity using the mouse stomach assay; from tissue; host or cells: isolated mouse stomach
T1 sequence (P56481 1-453): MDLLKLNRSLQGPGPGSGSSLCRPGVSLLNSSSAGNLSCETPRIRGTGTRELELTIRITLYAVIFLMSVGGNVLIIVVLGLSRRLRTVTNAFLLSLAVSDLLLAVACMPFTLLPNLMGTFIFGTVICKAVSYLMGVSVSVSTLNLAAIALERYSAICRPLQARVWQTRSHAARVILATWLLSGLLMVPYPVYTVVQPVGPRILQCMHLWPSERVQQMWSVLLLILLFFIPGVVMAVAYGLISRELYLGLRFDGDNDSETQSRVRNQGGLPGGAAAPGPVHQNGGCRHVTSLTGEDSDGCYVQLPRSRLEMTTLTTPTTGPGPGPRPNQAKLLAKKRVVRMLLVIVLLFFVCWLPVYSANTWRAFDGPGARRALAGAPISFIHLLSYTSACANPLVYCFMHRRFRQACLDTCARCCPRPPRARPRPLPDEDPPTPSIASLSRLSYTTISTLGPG
The assay is described as follows: mouse stomach assay for gastrin activity (isolated stomach, acid secretion). The assay is classed as cell-based. Conditions: for Acid seretion at 10^-5 M test compound, relative to pentagastrin (%): mouse stomach, NS = not significant. On the procedure:
The compounds were assayed for gastrin activity using the mouse stomach assay as described by Black, J. W. and Shankley, N. P., Br. J. Pharmacol., 86, 571-579, (1985), and also in the guinea-pig fundus assay, as follows: […]

Assay [1] concerns the target T2, cholecystokinin receptors (Cavia porcellus, UniProt Q63931).
T2 construct: Isolated, strip preparations were prepared from gall-bladders removed from male Dunkin-Hartley guinea-pigs; from tissue; host or cells: guinea-pig gall-bladder strips
T2 sequence (Q63931 1-430): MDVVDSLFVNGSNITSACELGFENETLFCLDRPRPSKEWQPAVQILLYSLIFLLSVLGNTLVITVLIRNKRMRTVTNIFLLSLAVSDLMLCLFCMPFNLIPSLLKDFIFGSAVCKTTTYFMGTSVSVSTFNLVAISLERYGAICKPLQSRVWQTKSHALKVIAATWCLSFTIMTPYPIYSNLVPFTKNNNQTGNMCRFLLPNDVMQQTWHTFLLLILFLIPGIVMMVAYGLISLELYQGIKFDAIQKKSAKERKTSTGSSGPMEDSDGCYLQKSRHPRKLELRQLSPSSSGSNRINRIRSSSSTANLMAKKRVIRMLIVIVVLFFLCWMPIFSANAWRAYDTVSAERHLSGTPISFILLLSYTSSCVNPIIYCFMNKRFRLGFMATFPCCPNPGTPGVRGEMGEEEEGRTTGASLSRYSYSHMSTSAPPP
The assay is described as follows: CCK-antagonist activity in isolated guinea-pig gall-bladder strip preparations. Particulars: guinea-pig gall-bladder strips; CCK-8 as agonist; test compound incubated for 60 minutes; standard errors less than 5%. It counts as cell-based. On the procedure: The compounds of the invention were also assayed for CCK-antagonist activity as follows:
Isolated, strip preparations were prepared from gall-bladders removed from male Dunkin-Hartley guinea-pigs (250-500 g body weight) according to the method of La Morte, W. W., et al., J.P.E.T., 217, (3), 638-644 (1981).
The complete gall-bladder is removed and opened along the longitudinal axis. Strips measuring 3 mm in the longitudinal axis and 1 mm in the transverse axis are cut and then tied with cotton to stainless steel wires. The preparation is connected to a GRASS FTO3 isometric transducer under an initial loading tension of 1 g and is immersed in 20 mls of Krebs solution maintained at 37° C. and gassed with 95% O2 /5% CO2. The Krebs solution is as detailed above in connection with the fundus assay, except that the Ca^2+ concentration is decreased to 0.5 mM. After 30 mins the preparation is washed. Drug addition begins after an initial 90 min stabilisation period. Responses are measured as changes in tension from that immediately prior to any drug addition. Single cumulative agonist concentration-effect curves, using CCK-8 as agonist, are obtained on each preparation in the absence and presence of test compound which has been incubated for 60 minutes. The antagonist activity of the test compound is estimated and expressed as the negative logarithm (base 10) of the equilibrium dissociation constants (pK8) using the modifications of standard competitive analysis described by Black et al., Br. J. Pharmacol.,86,571-579, (1985) and Shankley et al., Br. J. Pharmacol.,94,264-274 (1988).

Where [2] appears, read: isolated mouse stomach assay, gastrin antagonism, standard errors less than 5%.

The term pKB denotes −log10 of the KB, conventionally taken in molar units. High values mean a small KB, low ones a large KB. With `CNC(=O)[C@H](Cc1ccccc1)NC(=O)[C@H](CC(=O)O)NC(=O)[C@H](Cc1ccc2ccccc2c1)NC(=O)[C@H](Cc1c[nH]c2ccccc12)NC(=O)OC(C)(C)C` [Example 5, N-t-Butyloxycarbonyl-L-tryptophyl-L-3-(2-naphthyl)alanyl-L-aspartyl-L-phenylalanyl-(N-methyl)amide] (Boc-W[2Nal]DF-NHMe), the pKB mouse stomach at gastrin receptor (setting [2]) was 5.6. In addition, the “Acid seretion at 10^-5 M test compound, relative to pentagastrin (%)” value (shortened to “Acid seretion … relative to pentagastrin (%)”) at gastrin receptor was found to be 23%. In assay [1], this compound returned a pKB of 5.4.

`CC(C)(C)OC(=O)N[C@@H](Cc1c[nH]c2ccccc12)C(=O)N[C@@H](Cc1ccc2ccccc2c1)C(=O)N[C@@H](CC(=O)O)C(=O)N[C@@H](Cc1ccc(Cl)cc1)C(N)=O` [Example 11, N-t-Butyloxycarbonyl-L-tryptophyl-L-3-(2-naphthyl)alanyl-L-aspartyl-L-(4-chlorophenylalanin)amide] (Boc-W[2Nal]D[Phe(4-Cl)]-NH2): on gastrin receptor (setting [2]), the pKB mouse stomach amounted to 6.6. Besides, the “Acid seretion … relative to pentagastrin (%)” value on gastrin receptor amounted to 60%. Moreover, the pKB in assay [1] amounted to 5.9.

As to `NC(=O)[C@H](Cc1ccccc1)NC(=O)[C@H](CC(=O)O)NC(=O)[C@H](Cc1ccc2ccccc2c1)NC(=O)[C@H](Cc1c[nH]c2ccccc12)NC(=O)OC12CC3CC(CC(C3)C1)C2` [Example 13, N-1-Adamantyloxycarbonyl-L-tryptophyl-L-3-(2-naphthyl)alanyl-L-aspartyl-L-phenylalaninamide] (Adoc-W[2Nal]DF-NH2), in assay [1], the Kb is 1260 nM.

As to `COc1ccc(CCNC(=O)[C@H](CC(=O)O)NC(=O)[C@H](Cc2ccc3ccccc3c2)NC(=O)[C@H](Cc2c[nH]c3ccccc23)NC(=O)OC23CC4CC(CC(C4)C2)C3)cc1` [Example 14, N-1-Adamantyloxycarbonyl-L-tryptophyl-L-3-(2-naphthyl)alanyl-L-aspartyl-4-methoxyphenethylamide], the pKB in assay [1] amounted to 6.0.

With `NC(=O)[C@H](Cc1ccccc1)NC(=O)[C@H](CC(=O)O)NC(=O)[C@H](Cc1ccc2ccccc2c1)NC(=O)[C@H](Cc1c[nH]c2ccccc12)NC(=O)OCC1c2ccccc2-c2ccccc21` [Example 16, N-9-Fluorenylmethoxycarbonyl-L-tryptophyl-L-3-(2-naphthyl)alanyl-L-aspartyl-L-phenylalaninamide] (Fmoc-W[2Nal]DF-NH2), the Kb was 2000 nM on gastrin receptor (isolated mouse stomach assay, gastrin antagonism, standard errors less than 5%, read-out: pKB mouse stomach (converted)) and 2510 nM in assay [1]. Further, the “Acid seretion … relative to pentagastrin (%)” value on gastrin receptor worked out at 67%.

As to `CC(C)(C)OC(=O)N[C@@](C)(Cc1c[nH]c2ccccc12)C(=O)N[C@@H](Cc1ccc2ccccc2c1)C(=O)N[C@@H](CC(=O)O)C(=O)N[C@@H](Cc1ccccc1)C(N)=O` [Example 17, N-t-Butyloxycarbonyl-a-methyl-tryptophyl-L-3-(2-naphthyl)alanyl-L-aspartyl-L-phenylalaninamide] (Boc-[αMeW][2Nal]DF-NH2), at gastrin receptor (setting [2]), the pKB mouse stomach is 5.9. Besides, on gastrin receptor, the “Acid seretion … relative to pentagastrin (%)” value is given as 44%. The same compound showed a pKB in assay [1] of 5.5.

`NC(=O)[C@H](Cc1ccccc1)NC(=O)[C@H](CC(=O)O)NC(=O)[C@H](Cc1ccc2ccccc2c1)NC(=O)Cc1c[nH]c2ccccc12` [Example 20, Indole-3-acetamido-L-3-(2-naphthyl)alanyl-L-aspartyl-L-phenylalaninamide] had a pKB mouse stomach on gastrin receptor (setting [2]) of 6.2. The “Acid seretion … relative to pentagastrin (%)” value on gastrin receptor is 33%. In assay [1], this compound gave a pKB of 6.7.

`NC(=O)[C@H](Cc1ccccc1)NC(=O)[C@H](CC(=O)O)NC(=O)[C@H](Cc1ccc2ccccc2c1)NC(=O)CCc1c[nH]c2ccccc12` [Example 21, Indole-3-propionamido-L-3-(2-naphthyl)alanyl-L-aspartyl-L-phenylalaninamide] displayed a pKB in assay [1] of 6.2.

In assay [1], `CC(C)(C)OC(=O)N[C@H](Cc1c[nH]c2ccccc12)C(=O)N[C@@H](Cc1ccc2ccccc2c1)C(=O)N[C@@H](CC(=O)O)C(=O)N[C@@H](Cc1ccccc1)C(N)=O` [Example 22, N-t-Butyloxycarbonyl-D-tryptophyl-L-3-(2-naphthyl)alanyl-L-aspartyl-L-phenylalaninamide] (Boc-[dW][2Nal]DF-NH2) had a Kb of 631 nM.

In assay [1], `CC(C)(C)OC(=O)N[C@@H](Cc1c[nH]c2ccccc12)C(=O)N[C@@H](Cc1ccc2ccccc2c1)C(=O)N[C@@H](CC(=O)O)C(=O)NCCc1ccc(C(F)(F)F)cc1` [Example 28, N-t-Butyloxycarbonyl-L-tryptophyl-L-3-(2-naphthyl)alanyl-L-aspartyl-4-trifluoromethylphenethylamide] displayed a pKB of 6.4.

As to `CC(C)(C)OC(=O)N[C@@H](Cc1c[nH]c2ccccc12)C(=O)N[C@@H](Cc1ccc2ccccc2c1)C(=O)N[C@@H](CC(=O)O)C(=O)NCC12CC3CC(CC(C3)C1)C2` [Example 35, N-t-Butyloxycarbonyl-L-tryptophyl-L-3-(2-naphthyl)alanyl-L-aspartyl-1-adamantylmethylamide], the pKB in assay [1] was 5.8.

`CC(C)(C)OC(=O)N[C@@H](Cc1c[nH]c2ccccc12)C(=O)N[C@@H](Cc1ccc2ccccc2c1)C(=O)N[C@@H](CC(=O)O)C(=O)NCCc1ccc2c(c1)CCCC2` [Example 43, N-t-Butyloxycarbonyl-L-tryptophyl-L-3-(2-naphthyl)alanyl-L-aspartyl-2-(5,6,7,8-tetrahydronaphthyl)ethylamide] registered a pKB in assay [1] of 6.5.

In turn, `Cn1cc(C[C@H](NC(=O)OC(C)(C)C)C(=O)N[C@@H](Cc2ccc3ccccc3c2)C(=O)N[C@@H](CC(=O)O)C(=O)N[C@@H](Cc2ccccc2)C(N)=O)c2ccccc21` [Example 45, N-t-Butyloxycarbonyl-L-N^in-methyltryptophyl-L-3-(2-naphthyl)alanyl-L-aspartyl-L-phenylalaninamide] (Boc-[Trp(1-Me)][2Nal]DF-NH2) registered a negative logarithm of the KB (pKB) in assay [1] of 6.1.

For the compound `CC(C)(C)OC(=O)N[C@@H](Cc1c[nH]c2ccccc12)C(=O)N[C@@H](Cc1ccc2ccccc2c1)C(=O)N[C@@H](CC(=O)O)C(=O)NCCc1cccc(C(F)(F)F)c1` [Example 50, N-t-Butyloxycarbonyl-L-tryptophyl-L-3-(2-naphthyl)alanyl-L-aspartyl-3-trifluoromethylphenethylamide], the pKB in assay [1] was 6.1.

Take `CC(C)(C)OC(=O)N[C@@H](Cc1c[nH]c2ccccc12)C(=O)N[C@@H](Cc1ccc2ccccc2c1)C(=O)N[C@@H](CC(=O)O)C(=O)NC1Cc2ccccc2C1` [Example 53, N-t-Butyloxycarbonyl-L-tryptophyl-L-3-(2-naphthyl)alanyl-L-aspartyl-2-indanylamide]: in assay [1], the pKB is recorded as 6.6.

`COc1cc(OC)c(CCNC(=O)[C@H](CC(=O)O)NC(=O)[C@H](Cc2ccc3ccccc3c2)NC(=O)[C@H](Cc2c[nH]c3ccccc23)NC(=O)OC(C)(C)C)c(OC)c1` [Example 55, N-t-Butyloxycarbonyl-L-tryptophyl-L-3-(2-naphthyl)alanyl-L-aspartyl-2,4,6-trimethoxyphenethylamide]: in assay [1], the negative-log KB (pKB) is 6.4.

For “N-t-Butyloxycarbonyl-L-tryptophyl-L-3-(2-naphthyl)alanyl-L-aspartyl-2,4-dichlorophenethylamide [Example 37]”, the pKB in assay [1] worked out at 6.4.
